Data taken from US20240415123A1, “METHODS AND COMPOSITIONS FOR ICAFOLIN HERBICIDE TOLERANCE” (Monsanto Technology LLC, priority 2023, published 2024).

Legend:
Assay type in all cases: in vivo
[1] = tested on: transgenic soybean plants expressing CYP12_var; test: Icafolin herbicide injury rating, greenhouse spray, CYP12_var soybean; settings: for Percent Injury 15 DAT / Percent injury 21 DAT: Experiment 1
From the text: (§1) The codon-optimized polynucleotide sequences were placed into plant transformation cassettes with each CYP coding sequence operably-linked to a constitutive expression element comprising the promoter, leader, and intron sequence of Arabidopsis thaliana Ubiquitin 3 (SEQ ID NO:14) and a Medicago truncatula photosystem II terminator (SEQ ID NO:15). Four plant transformation vectors were created, each comprising one of the CYP gene expression cassettes and an aadA selectable marker expression cassette, conferring resistance to the antibiotics spectinomycin and streptomycin. Soybean cultivar AG3555 seed-derived embryo explants were transformed with the vectors by Agrobacterium-mediated transformation using known methods in the art, and transformed plantlets were selected based on growth in the presence of spectinomycin. Plantlets comprising single copy events were grown in the greenhouse to produce R1 seeds. R1 plants were subsequently selected for homozygous CYP-positive plants, either by molecular analysis of young leaf tissue or by seed chipping prior to planting. These selected plants were then screened for tolerance to icafolin herbicide.
(§2) Herbicide tolerance screens were performed by selecting R1 plants at roughly the V2-V3 developmental stage and applying icafolin herbicide with a track sprayer under standard greenhouse conditions. Two independent transgenic events per transgene were screened. The herbicide was formulated with 1% v/v methylated seed oil (MSO) and 2.5% v/v ammonium sulfate (AMS) and sprayed with a XR nozzle at 15 gallons per […] (GPA) to mimic field conditions. The icafolin used in this Example and in the experiments described in Examples 2-4 was a mixture of the methyl ester forms of the 2R, 4R and 2S, 4S isomers. The icafolin formulation was sprayed at two rates: 5 g active ingredient (ai)/hectare (ha) and 25 g ai/ha. The herbicide treated soybean plants were returned to the greenhouse following spray application and allowed to grow under standard conditions. Plants were rated for herbicide injury at approximately 14 and 21 days after treatment (DAT). Untreated transgenic plants and control (wild-type) plants were used for phenotypic comparison. The herbicide injury rating accounts for plant malformation, stunting, chlorosis, necrosis, and plant death relative to the untreated control plants. An injury rating of approximately 90% or above indicates nearly complete plant death. An injury rating of less than 30% indicates partial tolerance, and an injury rating of less than 20% indicates good tolerance. Injury ratings were collected and analyzed, and photographs of representative plants were taken.

[2] = tested on: transgenic soybean plants expressing CYP28; test: Icafolin herbicide injury rating, greenhouse spray, CYP28 soybean; settings: Table 8
From the text: (§3) The codon-optimized genes were placed into plant transformation cassettes with each CYP coding sequence operably linked to a constitutive expression element comprising the promoter, leader, and intron of Arabidopsis thaliana Ubiquitin 3 (SEQ ID NO:14) and a Medicago truncatula photosystem II terminator (SEQ ID NO:15). Two plant transformation vectors were created, each comprising one of the CYP gene cassettes and an aadA selectable marker expression cassette, conferring resistance to the antibiotics spectinomycin and streptomycin. Soybean cultivar AG3555 seed-derived embryo explants were transformed with the vectors described above by Agrobacterium-mediated transformation using known methods in the art, and positive-transformed plantlets were selected based on growth in the presence of spectinomycin. Plantlets comprising single copy events were grown in the greenhouse to produce R1 seeds. R1 plants were subsequently selected for the homozygous CYP positive plants, either by molecular analysis of young leaf tissue or by seed chipping prior to planting. These selected plants were then screened for tolerance to the icafolin herbicide.
(§4) Herbicide tolerance screening was performed by selecting R1 plants at roughly the V2-V3 developmental stage and applying the icafolin herbicide in a track sprayer under standard greenhouse conditions. Two independent transgenic events per transgene were selected for screening. The herbicide was formulated with 1% v/v methylated seed oil (MSO) and 2.5% v/v ammonium sulfate (AMS) and sprayed with a XR nozzle at 15 gallons per […] (GPA) to mimic field conditions. The icafolin formulation was sprayed at two rates: 5 g active ingredient (ai)/hectare (ha) and 25 g ai/ha. The treated soybean plants were returned to the greenhouse following spray application and allowed to grow under standard conditions. The plants were rated for herbicide injury at approximately 14 and 21 days after treatment (DAT). Untreated transgenic plants and control (wild-type) plants were used for phenotypic comparison. The herbicide injury rating accounts for plant malformation, stunting, chlorosis, necrosis, and plant death relative to the untreated control plants. An injury rating of approximately 90% or above indicates nearly complete plant death. An injury rating of less than 30% indicates partial tolerance and an injury rating of less than 20% indicates good tolerance. Injury ratings were collected and analyzed, and photographs of representative plants were taken.

[3] = tested on: transgenic soybean plants expressing CYP13; test: Icafolin herbicide injury rating, greenhouse spray, CYP13 soybean; settings: for Percent Injury 15 DAT / Percent injury 21 DAT: Experiment 1
From the text: as §1, §2

[4] = tested on: soybean event transformed with a non-herbicide tolerance construct (negative control); test: Field trial icafolin injury rating, negative control soybean; settings: averaged across repetitions and field locations
Experimental: Soy transgenic plants expressing CYP14 or CYP15 were assayed in small scale field trails across nine sites in the United States for tolerance to icafolin spray applications. The plants were grown in field plots and sprayed during the early vegetative stages when plants were roughly at the V3 stage. The icafolin formulation was sprayed at either a 5 g ai/ha or 25 g ai/ha application rate with 2 treatment replications per location. The plants were rated for herbicide injury at 7, 14, 21, and 28 days after treatment (DAT). A total of 12 events for CYP14 and 11 events for CYP15 were tested. An event transformed with a non-herbicide tolerance construct served as a negative control to provide a comparison for injury.

[5] = tested on: transgenic soybean plants expressing CYP21; test: Icafolin herbicide injury rating, greenhouse spray, CYP21 soybean; settings: for Percent Injury 14 DAT / Percent injury 21 DAT: Table 8; for Percent Injury 14 DAT / injury: 14 DAT
From the text: as §3, §4

[6] = CYP12_var Event 909, 5 g ai/ha icafolin
[7] = CYP12_var Event 909, 25 g ai/ha icafolin
[8] = CYP12_var Event 932, 5 g ai/ha icafolin
[9] = CYP12_var Event 932, 25 g ai/ha icafolin
[10] = CYP28 Event 44, 5 g ai/ha icafolin
[11] = CYP28 Event 44, 25 g ai/ha icafolin
[12] = CYP28 Event 90, 5 g ai/ha icafolin
[13] = CYP28 Event 90, 25 g ai/ha icafolin
[14] = CYP13 Event 943, 5 g ai/ha icafolin
[15] = CYP13 Event 943, 25 g ai/ha icafolin
[16] = CYP13 Event 982, 5 g ai/ha icafolin
[17] = CYP13 Event 982, 25 g ai/ha icafolin
[18] = CYP21 Event 344, 5 g ai/ha icafolin
[19] = CYP21 Event 344, 25 g ai/ha icafolin
[20] = CYP21 Event 502, 5 g ai/ha icafolin
[21] = CYP21 Event 502, 25 g ai/ha icafolin

For `C=C[C@]1(C(=O)N[C@H]2CO[C@@H](C(=O)OC)C2)CC(c2cc(F)cc(F)c2)=NO1` (relative stereo) [icafolin, methyl(2R*,4R*)-4-[[(5S)-3-(3,5-difluorophenyl)-5-vinyl-4H-isoxazole-5-carbonyl]amino]tetrahydrofuran-2-carboxylate], the “Percent Injury 15 DAT” value [1, 6] was 39%, the “Percent injury 21 DAT” value [1, 6] was 50% and the “Percent Injury 15 DAT” value [1, 7] was 57%. For the same compound, the “Percent injury 21 DAT” value [1, 7] was 77%, the “Percent Injury 15 DAT” value [1, 8] was 42% and the “Percent injury 21 DAT” value [1, 8] was 47%. For the same compound, the “Percent Injury 15 DAT” value [1, 9] was 69%, the “Percent injury 21 DAT” value [1, 9] was 80% and the Tolerance to icafolin ([1]; in vivo) was “did not show any noticeable tolerance”. The “Percent Injury 14 DAT” value [2, 10] was 15.6%, the “Percent injury 21 DAT” value [2, 10] was 13.3% and the “Percent Injury 14 DAT” value [2, 11] was 67.2%. The “Percent injury 21 DAT” value [2, 11] was 56.7%, the “Percent Injury 14 DAT” value [2, 12] was 28.0% and the “Percent injury 21 DAT” value [2, 12] was 13.0%. The “Percent Injury 14 DAT” value [2, 13] was 68.0%, the “Percent injury 21 DAT” value [2, 13] was 74.0% and the “Percent Injury 15 DAT” value [3, 14] was 42%. For the same compound, the “Percent injury 21 DAT” value [3, 14] was 59%, the “Percent Injury 15 DAT” value [3, 15] was 74% and the “Percent injury 21 DAT” value [3, 15] was 80%. The “Percent Injury 15 DAT” value [3, 16] was 41%, the “Percent injury 21 DAT” value [3, 16] was 52% and the “Percent Injury 15 DAT” value [3, 17] was 69%. The “Percent injury 21 DAT” value [3, 17] was 80%, the Tolerance to icafolin ([3]; in vivo) was “did not show any noticeable tolerance” and the “Percent Plant Injury (21 DAT)” value ([4]; 5 g ai/ha icafolin) was 18.9%. For the same compound, the “Percent Plant Injury (21 DAT)” value ([4]; 25 g ai/ha icafolin) was 62.8%, the Tolerance to icafolin ([5]; CYP21, overall) was “good tolerance (an injury rating of less than 20% indicates good tolerance)” and the “Percent Injury 14 DAT” value [5, 18] was 2.5%. For the same compound, the “Percent injury 21 DAT” value [5, 18] was 5.0%, the “Percent Injury 14 DAT” value [5, 19] was 50% and the “Percent injury 21 DAT” value [5, 19] was 37.5%. For the same compound, the “Percent Injury 14 DAT” value [5, 20] was 7.5%, the “Percent injury 21 DAT” value [5, 20] was 5.0% and the “Percent Injury 14 DAT” value [5, 21] was 72.5%. For the same compound, the “Percent injury 21 DAT” value [5, 21] was 62.5%, the “injury” value ([5]; CYP21 events, 5 g ai/ha) was “less than 10%” and the “injury” value ([5]; one CYP21 event, 25 g ai/ha) was “about 50%”. The “injury” value ([5]; the other CYP21 event, 25 g ai/ha) was “about 72%”.
